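Interpolation was linear, between the two tested concentrations surrounding the appropriate level; five concentrations were tested over 48 hours in 96-well plates. Abbreviation: GI50, concentration required for 50% inhibition of growth. TGI marks complete inhibition of growth.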
Assays:
Assay in all cases: NCI tumour cell line growth inhibition, 48 h
[1] = tested on: SK-MEL-5 melanoma
[2] = tested on: LOX IMVI melanoma
[3] = tested on: BT-549 breast
[4] = tested on: HOP-62 NSCLC
[5] = tested on: COLO 205 colon
[6] = tested on: HOP-92 NSCLC
[7] = tested on: CCRF-CEM leukemia
[8] = tested on: HCC-2998 colon
[9] = tested on: EKVX NSCLC
[10] = tested on: A549 NSCLC
[11] = tested on: SK-OV-3 ovarian
[12] = tested on: SNB-75 CNS
[13] = tested on: TK-10 renal
[14] = tested on: UO-31 renal
[15] = tested on: SF-268 CNS
[16] = tested on: SF-539 CNS
[17] = tested on: SF-295 CNS
[18] = tested on: T-47D breast
[19] = tested on: A498 renal
[20] = tested on: K-562 leukemia
[21] = tested on: SW-620 colon
[22] = tested on: SK-MEL-2 melanoma
[23] = tested on: KM12 colon
[24] = tested on: NCI-H226 lung
[25] = tested on: HCT-116 colon
[26] = tested on: MCF7 breast
[27] = tested on: OVCAR-8 ovarian
[28] = tested on: OVCAR-5 ovarian
[29] = tested on: MDA-MB-231 breast
[30] = tested on: CAKI-1 renal
[31] = tested on: OVCAR-4 ovarian
[32] = tested on: UACC-62 melanoma
[33] = tested on: SK-MEL-28 melanoma
[34] = tested on: DU-145 prostate
[35] = tested on: HT29 colon
[36] = tested on: SNB-19 CNS
[37] = tested on: HCT-15 colon
[38] = tested on: MOLT-4 leukemia
[39] = tested on: NCI/ADR-RES ovarian
[40] = tested on: ACHN renal
[41] = tested on: MDA-MB-435
[42] = tested on: OVCAR-3 ovarian
[43] = tested on: HS 578T breast
[44] = tested on: NCI-H23 lung
[45] = tested on: HL-60(TB) leukemia
[46] = tested on: RXF 393 renal
[47] = tested on: MALME-3M melanoma
[48] = tested on: M14 melanoma
[49] = tested on: 786-0 renal
[50] = tested on: NCI-H460 lung
[51] = tested on: SR leukemia
[52] = tested on: SN12C renal
[53] = tested on: PC-3 prostate
[54] = tested on: U251 CNS
[55] = tested on: UACC-257 melanoma

COc1cccc(/C=C/C(=O)c2ccc(Cl)cc2Cl)c1OC
GI50 [1]: 13.3 µM
TGI [1]: 28.1 µM
GI50 [2]: 2.64 µM
TGI [2]: 6.88 µM
GI50 [3]: 5.93 µM
TGI [3]: 20.2 µM
GI50 [4]: 16.6 µM
TGI [4]: 30.3 µM
GI50 [5]: 5.44 µM
TGI [5]: 17.4 µM
GI50 [6]: 4.35 µM
TGI [6]: 19.5 µM
GI50 [7]: 2.77 µM
TGI [7]: 26.9 µM
GI50 [8]: 14.5 µM
TGI [8]: 27.7 µM
GI50 [9]: 13.6 µM
TGI [9]: 31.8 µM
GI50 [10]: 10.4 µM
TGI [10]: 24.7 µM
GI50 [11]: 15.4 µM
TGI [11]: 28.7 µM
GI50 [12]: 18 µM
TGI [12]: 33.8 µM
GI50 [13]: 13.5 µM
TGI [13]: 27 µM
GI50 [14]: 3.43 µM
TGI [14]: 17.4 µM
GI50 [15]: 12.9 µM
TGI [15]: 41.5 µM
GI50 [16]: 14.1 µM
TGI [16]: 29 µM
GI50 [17]: 15 µM
TGI [17]: 32.5 µM
GI50 [18]: 8.59 µM
TGI [18]: 25.5 µM
GI50 [19]: 16.2 µM
TGI [19]: 30.5 µM
GI50 [20]: 2.39 µM
TGI [20]: 5.72 µM
GI50 [21]: 2.98 µM
TGI [21]: 9.12 µM
GI50 [22]: 4.58 µM
TGI [22]: 17.4 µM
GI50 [23]: 2.74 µM
TGI [23]: 13.1 µM
GI50 [24]: 9.96 µM
TGI [24]: 29.6 µM
GI50 [25]: 2.31 µM
TGI [25]: 5.85 µM
GI50 [26]: 4.52 µM
TGI [26]: 32 µM
GI50 [27]: 3.73 µM
TGI [27]: 13.7 µM
GI50 [28]: 17.1 µM
TGI [28]: 30.9 µM
GI50 [29]: 12.3 µM
TGI [29]: 27.8 µM
GI50 [30]: 12.6 µM
TGI [30]: 25.1 µM
GI50 [31]: 11.3 µM
TGI [31]: 34 µM
GI50 [32]: 10.6 µM
TGI [32]: 24 µM
GI50 [33]: 14.2 µM
TGI [33]: 27.4 µM
GI50 [34]: 11.4 µM
TGI [34]: 27.5 µM
GI50 [35]: 5.04 µM
TGI [35]: 17.3 µM
GI50 [36]: 4.15 µM
TGI [36]: 14.9 µM
GI50 [37]: 3.76 µM
TGI [37]: 12.9 µM
GI50 [38]: 3.04 µM
TGI [38]: 12.4 µM
GI50 [39]: 11.1 µM
TGI [39]: 25.2 µM
GI50 [40]: 14.3 µM
TGI [40]: 28 µM
GI50 [41]: 5.51 µM
TGI [41]: 18.7 µM
GI50 [42]: 7.38 µM
TGI [42]: 19.7 µM
TGI [43]: 39.8 µM
GI50 [44]: 13.7 µM
TGI [44]: 26.6 µM
GI50 [45]: 2.4 µM
TGI [45]: 5.85 µM
GI50 [46]: 4.07 µM
TGI [46]: 15.8 µM
GI50 [47]: 13.8 µM
TGI [47]: 28.2 µM
GI50 [48]: 13.7 µM
TGI [48]: 26.7 µM
GI50 [49]: 10.3 µM
TGI [49]: 21.9 µM
GI50 [50]: 8.37 µM
TGI [50]: > 100 µM
GI50 [51]: 2.28 µM
TGI [51]: 9.67 µM
GI50 [52]: 5.73 µM
TGI [52]: 19.9 µM
GI50 [53]: 4.32 µM
TGI [53]: 17.1 µM
GI50 [54]: 6.19 µM
TGI [54]: 18.7 µM
GI50 [55]: 11.2 µM
TGI [55]: 23.2 µM

Reference: PubChem BioAssay (NCI)
